Here are results for 4 substances from patent US7220725B2, “Pharmaceutical composition comprising an analgesic peptide and method for treating pain” (S.I.S. Shulov Institute for Science Ltd., priority 2000, dated 2007).

For the assay, the system named is HCl induced pain. Briefly: Analgesic assay: licks after subcutaneous HCl injection following topical ointment. It is filed as in vivo, hamsters. The procedure:
In each test, a few tens of hamsters of similar weight and age were used. The hamsters were divided into groups according to the number of samples to be tested. Ointment (50% Lanolin and 50% Vaseline) containing the tested substance was applied to the animal's fur on the back region. The fur was not removed so as to ensure that no damage to the skin occurred. A control group of hamsters was treated with ointment without the fraction of the invention. Hamsters were treated by topical application for 6, 14, 21 or 28 consecutive days. The test for analgesity was conducted following the last application of the ointment. In an alternate protocol, analgesity was tested following a single application of the ointment.
Subsequently to application of the ointment, the hamsters “clean” themselves by dispersing the ointment all over their body with their tongue and legs. Thus, some of the ointment is introduced into the oral cavity and possibly also into the intestine of the hamsters.
In a typical test, a constant amount of ointment with or without an analgesic substance is applied to each animal for a predetermined period of one or more days. Following this period, pain is induced by a subcutaneous injection of 0.5 ml of 1N HCl/0.1 kg body weight in the femur region. The hamsters respond to the HCl injection by touching the area of injection with the tongue, this being called a “lick”. 20 minutes after injection the hamster is observed for 60 min and the number of “licks” are counted. The number of “licks” serves as a quantitative indication of the HCl induced pain.
The analgesic effect is determined by comparing the mean number of “licks” in control animals to the number in treated animals. The significance of the difference was determined using t-test statistics.
0.6 mg of pENW, pENWK-C8 or pENWGAT (a dimer of pENW) were dissolved in 5 ml of DDW, mixed by an ultrasonic mixer for 2 minutes and then dissolved in […] of ointment. The final peptide concentration was 0.002 mg/gr.
6 applications were made over a period of 4 weeks. The test for analgesity was conducted 10 days following the last application of the ointment.
Compositions at a concentration of 0.020 mg/g were prepared as in Example 1 containing the following active ingredients: pENW, pEEW, or pENTW or pENWT. 6 applications were made over a period of 5 weeks. The results are summarized below:
A composition containing pENW—C8 at a concentration of 0.002 mg/g ointment was prepared as in Example 1. A single application was made to the animals, and analgesity was assayed 11, 23 and 48 days post-application. Ointment without an active substance was applied to the control animals.

The mark [1] stands for this setting: Example 1: 0.002 mg/gr in ointment, topical, 6 applications over 4 weeks, tested 10 days after last application, control 113.9.
Where [2] appears, read: Example 2: 0.020 mg/g in ointment, topical, 6 applications over 5 weeks, control 117.

Square brackets hold non-standard residues; d marks the D form. * marks the point of attachment. pGlu = O=C1CC[C@@H](C(=O)O)N1; Octanoyl = CCCCCCCC(=O)*

On to “pGLU-ASN-TRP-LYS(octanoyl)-OH ([pGlu]NWK(Octanoyl)-OH; SMILES CCCCCCCC(=O)NCCCC[C@H](NC(=O)[C@H](Cc1c[nH]c2ccccc12)NC(=O)[C@H](CC(N)=O)NC(=O)[C@@H]1CCC(=O)N1)C(=O)O) [pENWK-C8]”, for which the “mean number of licks” value under setting [1] was 37.9.
In the case of pGLU-ASN-TRP—OH [pENW], the “mean number of licks” value was 59.7 under setting [1] and 44 under setting [2].
As to pGLU-GLU-TRP—OH [pEEW], the “mean number of licks” value under setting [2] amounted to 35.
For the substance pGlu-Asn-Trp-O-octyl [pENW—C8], the “mean number of licks” value is listed as 66 (Example 3: 0.002 mg/g ointment, single application, 11 days post application, control 106); 35.7 (Example 3: 0.002 mg/g ointment, single application, 23 days post application, control 106); 62.4 (Example 3: 0.002 mg/g ointment, single application, 48 days post application, control 106).
